From patent publication US20230106032A1, “IMIDAZOTRIAZINES ACTING ON CANCER VIA INHIBITION OF CDK12” (Bayer Aktiengesellschaft, priority 2020, published 2023) come the findings set out here.

Each structure is given as a SMILES string.

One test deals with T1, CDK9/CycT1 (Homo sapiens, UniProt P50750).
T1 construct: Recombinant full-length His-tagged human CDK9 and CycT1, expressed in insect cells; His; purchased Life Technologies PV4131; host or cells: insect cells
Put plainly: CDK9/CycT1 high ATP kinase assay (TR-FRET, 2 mM ATP). The following applies: read-out: CDK9/CyclinT1, 2 mM ATP (high ATP) IC50-[mol/l] (median). Format: biochemical. The procedure: CDK9/CycT1-inhibitory activity of compounds of the present invention at a high ATP concentration after preincubation of enzyme and test compounds was quantified employing the CDK9/CycT1 TR-FRET assay as described in the following paragraphs.
Recombinant full-length His-tagged human CDK9 and CycT1, expressed in insect cells and purified by Ni-NTA affinity chromatography, were purchased from Life Technologies (Cat. No PV4131). As substrate for the kinase reaction biotinylated peptide biotin-Ttds-YISPLKSPYKISEG (C-terminus in amide form) was used which can be purchased e.g. form the company JERINI peptide technologies (Berlin, Germany).
For the assay 50 nanoL of a 100 fold concentrated solution of the test compound in DMSO was pipetted into either a black low volume 384 well microtiter plate or a black 1536 well microtiter plate (both Greiner Bio-One, Frickenhausen, Germany), 2 microL of a solution of CDK9/CycT1 in aqueous assay buffer [50 millimol/L Tris/HCl pH 8.0, 10 millimol/L MgCl2, 1.0 millimol/L dithiothreitol, 0.1 millimol/L sodium ortho-vanadate, 0.01% (v/v) Nonidet-P40 (Sigma)] were added and the mixture was incubated for 15 min at 22° C. to allow pre-binding of the test compounds to the enzyme before the start of the kinase reaction. Then the kinase reaction was started by the addition of 3 microL of a solution of adenosine-tri-phosphate (ATP, 3.3 millimol/L=> final conc. in the 5 microL assay volume is 2 millimol/L) and substrate (1.25 micromol/L=> final conc. in the 5 microL assay volume is 0.75 micromol/L) in assay buffer and the resulting mixture was incubated for a reaction time of 25 min at 22° C. The concentration of CDK9/CycT1 was adjusted depending of the activity of the enzyme lot and was chosen appropriate to have the assay in the linear range, typical concentrations were in the range of 0.5 microg/ml. The reaction was stopped by the addition of 3 microL of a solution of TR-FRET detection reagents (0.33 micromol/L streptavidine-XL665 [Cisbio Bioassays, Codolet, France] and 1.67 nanomol/L anti-RB(pSer807/pSer8l 1)-antibody from BD Pharmingen [#558389] and 2 nanomol/L LANCE EU-W1024 labeled anti-mouse IgG antibody [Perkin-Elmer, product no. AD0077]) in an aqueous EDTA-solution (167 millimol/L EDTA, 0.2% (w/v) bovine serum albumin in 100 millimol/L HEPES pH 7.5).
The resulting mixture was incubated 1 h at 22° C. to allow the formation of complex between the phosphorylated biotinylated peptide and the detection reagents. Subsequently the amount of phosphorylated substrate was evaluated by measurement of the resonance energy transfer from the Eu-chelate to the streptavidine-XL. Therefore, the fluorescence emissions at 620 nm and 665 nm after excitation at 350 nm was measured in a TR-FRET reader, e.g. a Pherastar (BMG Labtechnologies, Offenburg, Germany) or a Viewlux (Perkin-Elmer). The ratio of the emissions at 665 nm and at […] was taken as the measure for the amount of phosphorylated substrate. The data were normalised (enzyme reaction without inhibitor=0% inhibition, all other assay components but no enzyme=100% inhibition).
Background: TR-FRET usually uses a lanthanide donor and a delayed reading to cut background.

The subject of test [1] is CAL-120 human breast adenocarcinoma cells. Put plainly: Proliferation assay CAL-120 (crystal violet). Type of test: cell-based. The following applies: 96 h, CAL-120 cells, 4 days, read-out: Prolif-CAL-120_ IC50-[mol/l] (median). The procedure: Human tumour cells were originally obtained from the American Type Culture Collection (ATCC), or from the Deutsche Sammlung von Mikroorganismen und Zellkulturen (DSMZ, German Collection of Microorganisms and Cell Cultures). Cultivated tumour cells (CAL-120, human breast adenocarcinoma cells, DSMZ ACC-459; MDA-MB-231, human breast cancer cells, ATCC HTB-26) were plated at a density of 4,000 cells/well in a 96-well multititer plate in 200 microL of their respective growth medium supplemented 10% fetal calf serum. After 24 hours, the cells of one plate (zero-point plate) were stained with crystal violet (see below), while the medium of the other plates was supplemented with the test substances in various concentrations (0 micromol/L, as well as in the range of 0.01-10 micromol/L; the final concentration of the solvent dimethyl sulfoxide was adjusted to 0.1%) using a Tecan HP D300 Digital Dispenser. The cells were incubated for 4 days in the presence of test substances. Cell proliferation was determined by staining the cells with crystal violet: the cells were fixed by adding 20 microL/measuring point of an 11% glutaric aldehyde solution for 15 minutes at room temperature. After three washing cycles of the fixed cells with water, the plates were dried at room temperature. The cells were stained by adding 100 microL/measuring point of a 0.1% crystal violet solution (pH 3.0). After three washing cycles of the stained cells with water, the plates were dried at room temperature. The dye was dissolved by adding 100 microL/measuring point of a 10% acetic acid solution. The extinction was determined by photometry at a wavelength of 595 nm. The change of cell number, in percent, was calculated by normalization of the measured values to the extinction values of the zero-point plate (=0%) and the extinction of the untreated (0 μM) cells (=100%). The IC50 values (inhibitory concentration at 50% of maximal effect) were determined by means of a 4 parameter fit.

The target in a further test is T2, CDK12 (Homo sapiens, UniProt Q9NYV4).
T2 construct: endogenous in cells; host or cells: CAL-120 human breast cancer cells (DSMZ ACC 459)
T2 sequence (Q9NYV4 whole entry): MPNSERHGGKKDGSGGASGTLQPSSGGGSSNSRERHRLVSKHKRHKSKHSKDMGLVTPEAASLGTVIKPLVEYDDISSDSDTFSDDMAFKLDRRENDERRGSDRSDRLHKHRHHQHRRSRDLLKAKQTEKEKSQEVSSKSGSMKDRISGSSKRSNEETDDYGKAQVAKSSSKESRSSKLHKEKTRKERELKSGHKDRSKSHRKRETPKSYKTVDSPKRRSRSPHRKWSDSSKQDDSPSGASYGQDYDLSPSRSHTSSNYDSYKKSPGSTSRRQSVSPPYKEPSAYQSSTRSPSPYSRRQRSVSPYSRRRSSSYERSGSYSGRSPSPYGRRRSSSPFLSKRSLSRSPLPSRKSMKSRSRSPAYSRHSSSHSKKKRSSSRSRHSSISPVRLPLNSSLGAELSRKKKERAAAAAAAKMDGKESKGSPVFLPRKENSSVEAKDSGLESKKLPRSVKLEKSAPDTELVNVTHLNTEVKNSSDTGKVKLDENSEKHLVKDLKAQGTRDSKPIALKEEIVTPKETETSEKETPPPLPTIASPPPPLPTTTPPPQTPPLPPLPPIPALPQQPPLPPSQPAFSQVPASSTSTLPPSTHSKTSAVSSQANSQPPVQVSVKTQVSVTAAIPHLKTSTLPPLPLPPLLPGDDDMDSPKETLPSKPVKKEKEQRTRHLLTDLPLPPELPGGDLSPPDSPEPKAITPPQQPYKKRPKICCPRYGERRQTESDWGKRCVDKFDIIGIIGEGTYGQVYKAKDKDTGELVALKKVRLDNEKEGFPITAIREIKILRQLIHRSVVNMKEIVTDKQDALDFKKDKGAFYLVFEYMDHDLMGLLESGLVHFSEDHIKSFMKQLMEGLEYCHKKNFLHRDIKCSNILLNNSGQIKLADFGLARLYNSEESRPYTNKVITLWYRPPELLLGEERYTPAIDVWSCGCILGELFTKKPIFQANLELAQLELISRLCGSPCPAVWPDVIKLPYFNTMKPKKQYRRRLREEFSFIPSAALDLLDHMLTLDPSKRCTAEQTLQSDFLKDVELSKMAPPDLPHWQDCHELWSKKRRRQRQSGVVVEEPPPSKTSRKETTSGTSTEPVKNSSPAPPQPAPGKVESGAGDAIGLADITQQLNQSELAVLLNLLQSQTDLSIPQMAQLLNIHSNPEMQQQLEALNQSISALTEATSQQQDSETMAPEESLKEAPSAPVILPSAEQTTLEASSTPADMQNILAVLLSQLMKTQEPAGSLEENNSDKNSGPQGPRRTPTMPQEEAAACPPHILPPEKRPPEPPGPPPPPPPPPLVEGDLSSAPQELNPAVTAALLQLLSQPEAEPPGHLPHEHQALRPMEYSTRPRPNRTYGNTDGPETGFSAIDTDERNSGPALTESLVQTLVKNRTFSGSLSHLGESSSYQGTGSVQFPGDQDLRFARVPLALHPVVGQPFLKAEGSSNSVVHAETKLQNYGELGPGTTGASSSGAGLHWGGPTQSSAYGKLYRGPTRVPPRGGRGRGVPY
T2 sequence (O75909 whole entry partner): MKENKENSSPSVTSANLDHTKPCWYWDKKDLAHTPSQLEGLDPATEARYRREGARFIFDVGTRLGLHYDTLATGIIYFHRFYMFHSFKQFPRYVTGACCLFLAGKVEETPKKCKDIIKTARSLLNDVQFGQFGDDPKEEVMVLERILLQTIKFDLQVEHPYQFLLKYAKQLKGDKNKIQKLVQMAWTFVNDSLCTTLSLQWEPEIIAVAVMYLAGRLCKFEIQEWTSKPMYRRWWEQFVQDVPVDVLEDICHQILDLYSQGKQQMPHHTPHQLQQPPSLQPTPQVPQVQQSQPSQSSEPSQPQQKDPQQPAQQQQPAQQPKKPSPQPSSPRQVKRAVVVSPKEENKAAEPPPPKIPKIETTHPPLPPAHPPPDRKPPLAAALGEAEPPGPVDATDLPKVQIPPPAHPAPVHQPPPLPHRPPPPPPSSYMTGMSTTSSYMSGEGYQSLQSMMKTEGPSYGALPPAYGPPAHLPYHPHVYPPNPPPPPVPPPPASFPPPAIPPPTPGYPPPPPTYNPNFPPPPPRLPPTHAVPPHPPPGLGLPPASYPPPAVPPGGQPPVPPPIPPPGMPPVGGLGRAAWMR
Briefly: CDK12 nuclear protein level: immunofluorescence/high content analysis in CAL-120 cells. Type of test: cell-based. Particulars: for DC50: CAL-120 cells, 24 h, nuclear CDK12 staining, read-out: CDK12 degradation IF DC50-[mol/l] (median); for (IC50 CDK12 high ATP) to (Degradation DC50 CDK12) ratio: IC50 CDK12 hATP (Table 2) divided by DC50 CDK12 IF (Table 8). As to the method:
In the context of the present invention, the term “DC50 CDK12” refers to the DC50 values obtained according to the assay described in this section (6) herein below, i.e. the DC50 values for the degradation of CDK12.
CAL-120 human breast cancer cells (DSMZ ACC 459) are seeded in 1536-well microtiter plates (800 cells per well) containing 50 nanoL of compounds in Dose-Response. Control wells received DMSO or Reference Example 1. Plates are then incubated for 24 h at 37° C. in an humidified incubator and fixed with 4% PFA for 10 min. Then immunofluorescence (IF) against CDK12 (CellSignalling CDK12 Antibody #11973, rabbit, 1:100 dilution) is performed using standard IF protocols. Cells are then stained with Hoechst 33342 (Life Technologies, H-1399, 0.1 microg/ml) and imaged on an automated confocal microscopy system (e.g. Perkin Elmer Opera Phenix). Nuclear and cytoplasmic intensity as well as the nuclear/cytoplasmic intensity ratio is determined by automated image analysis using custom generated scripts (MetaXpress). Data is then transferred to Genedata Screener software, normalized to DMSO and control and DC50 values (degrading concentration to achieve 50% reduction of nuclear CDK12 staining intensity relative to controls) are reported.

T1 sequence (P50750 whole entry): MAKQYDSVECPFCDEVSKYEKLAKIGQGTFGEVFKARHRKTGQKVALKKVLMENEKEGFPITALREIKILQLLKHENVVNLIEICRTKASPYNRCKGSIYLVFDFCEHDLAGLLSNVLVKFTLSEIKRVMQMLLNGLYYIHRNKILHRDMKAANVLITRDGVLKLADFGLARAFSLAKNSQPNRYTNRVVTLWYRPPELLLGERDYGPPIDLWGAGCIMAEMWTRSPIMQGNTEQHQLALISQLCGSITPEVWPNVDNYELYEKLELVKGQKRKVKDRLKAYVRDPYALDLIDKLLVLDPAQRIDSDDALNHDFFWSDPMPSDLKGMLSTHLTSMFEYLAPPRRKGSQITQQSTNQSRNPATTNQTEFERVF
T1 sequence (O60563 whole entry partner): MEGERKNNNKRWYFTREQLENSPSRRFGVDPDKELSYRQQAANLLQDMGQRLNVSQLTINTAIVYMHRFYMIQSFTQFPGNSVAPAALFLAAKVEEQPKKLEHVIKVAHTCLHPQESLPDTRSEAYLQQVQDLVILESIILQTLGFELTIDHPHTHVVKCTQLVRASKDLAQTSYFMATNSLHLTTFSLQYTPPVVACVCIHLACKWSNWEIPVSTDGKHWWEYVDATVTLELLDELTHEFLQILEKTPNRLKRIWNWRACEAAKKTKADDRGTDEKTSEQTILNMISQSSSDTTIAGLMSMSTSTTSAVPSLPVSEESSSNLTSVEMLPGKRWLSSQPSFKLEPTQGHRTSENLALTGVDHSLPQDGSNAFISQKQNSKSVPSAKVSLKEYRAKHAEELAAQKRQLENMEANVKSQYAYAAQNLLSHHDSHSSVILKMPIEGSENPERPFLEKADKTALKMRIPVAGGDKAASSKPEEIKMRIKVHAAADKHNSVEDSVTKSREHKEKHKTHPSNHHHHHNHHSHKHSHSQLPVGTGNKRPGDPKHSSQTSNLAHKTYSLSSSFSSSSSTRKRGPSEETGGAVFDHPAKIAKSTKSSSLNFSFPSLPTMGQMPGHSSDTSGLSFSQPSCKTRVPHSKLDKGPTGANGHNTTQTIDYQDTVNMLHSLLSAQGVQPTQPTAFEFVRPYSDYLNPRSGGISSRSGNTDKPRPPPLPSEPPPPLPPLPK

In the case of `Fc1ccc2[nH]c(CNc3nc(N4CCOCC4)nn4c(Br)cnc34)nc2c1` [Example 20, 7-bromo-N-[(5-fluoro-1H-benzimidazol-2-yl)methyl]-2-(morpholin-4-yl)imidazo[2,1-f][1,2,4]triazin-4-amine], the figures for the IC50 (at CDK9/CycT1; in test [1]) were over 20000 nM and 10.7 nM, respectively. Also, the DC50 on CDK12 stood at 0.842 nM. Also, at CDK12, the “(IC50 CDK12 high ATP) to (Degradation DC50 CDK12) ratio” value worked out at 4106.

`C[C@@H]1CN(c2nc(NCc3nc4ccccc4[nH]3)c3ncc(Br)n3n2)C[C@H](C)O1` [Example 4, N-[(1H-benzimidazol-2-yl)methyl]-7-bromo-2-[rel-(2R,6S)-2,6-dimethylmorpholin-4-yl]imidazo[2,1-f][1,2,4]triazin-4-amine]: the IC50 on CDK9/CycT1 amounted to 17700 nM; in test [1] it was 53.8 nM. Further, at CDK12, the DC50 is 13 nM. For the same molecule, the “(IC50 CDK12 high ATP) to (Degradation DC50 CDK12) ratio” value at CDK12 worked out at 76.

Consider `C[C@@H]1CN(c2nc(NCc3nc4c(F)cccc4[nH]3)c3ncc(Br)n3n2)C[C@H](C)N1` [Example 18, 7-bromo-2-[rel-(3R,5S)-3,5-dimethylpiperazin-1-yl]-N-[(4-fluoro-1H-benzimidazol-2-yl)methyl]imidazo[2,1-f][1,2,4]triazin-4-amine], for which the IC50 at CDK9/CycT1 turned out to be 14200 nM. Besides, the IC50 in test [1] was found to be 2.08 nM. Moreover, on CDK12, the DC50 worked out at 0.631 nM and the “(IC50 CDK12 high ATP) to (Degradation DC50 CDK12) ratio” value is 2854.

Take `CN1CCN(c2nc(NCc3nc4ccccc4[nH]3)c3ncc(C(F)(F)F)n3n2)CC1` [Example 25, N-[(1H-benzimidazol-2-yl)methyl]-2-(4-methylpiperazin-1-yl)-7-(trifluoromethyl)imidazo[2,1-f][1,2,4]triazin-4-amine]: the IC50 on CDK9/CycT1 is over 20000 nM. Further, the IC50 in test [1] is 12.3 nM. For the same molecule, at CDK12, the DC50 came out at 3.55 nM and the “(IC50 CDK12 high ATP) to (Degradation DC50 CDK12) ratio” value was 3050.

Take `COc1cccc2[nH]c(CNc3nc(N4CCOCC4)nn4c(Br)cnc34)nc12` [Example 13, 7-bromo-N-[(4-methoxy-1H-benzimidazol-2-yl)methyl]-2-(morpholin-4-yl)imidazo[2,1-f][1,2,4]triazin-4-amine]: on CDK9/CycT1, the IC50 was over 18900 nM. Moreover, the IC50 in test [1] was 12.3 nM. Further, on CDK12, the DC50 came out at 1.79 nM and the “(IC50 CDK12 high ATP) to (Degradation DC50 CDK12) ratio” value worked out at 742.

On to `FC(F)(F)c1cnc2c(NCc3nc4ccccc4[nH]3)nc(N3CCOCC3)nn12` [Example 26, N-[(1H-benzimidazol-2-yl)methyl]-2-(morpholin-4-yl)-7-(trifluoromethyl)imidazo[2,1-f][1,2,4]triazin-4-amine], for which, on CDK9/CycT1, the IC50 is over 20000 nM. For the same molecule, the IC50 in test [1] is 7.11 nM. In addition, at CDK12, the DC50 was found to be 4.79 nM and the “(IC50 CDK12 high ATP) to (Degradation DC50 CDK12) ratio” value is on record as 36.

On to `C[C@@H]1CN(c2nc(NCc3nc4c(F)c(F)ccc4[nH]3)c3ncc(Br)n3n2)C[C@H](C)N1` [Example 11, 7-bromo-N-[(4,5-difluoro-1H-benzimidazol-2-yl)methyl]-2-[rel-(3R,5S)-3,5-dimethylpiperazin-1-yl]imidazo[2,1-f][1,2,4]triazin-4-amine], for which the IC50 on CDK9/CycT1 came out at 10800 nM. Moreover, the IC50 in test [1] came out at 0.381 nM. For the same molecule, on CDK12, the DC50 turned out to be 0.111 nM and the “(IC50 CDK12 high ATP) to (Degradation DC50 CDK12) ratio” value came to 5221.

With `CN1CCN(c2nc(NCc3nc4c(F)c(F)ccc4[nH]3)c3ncc(C(F)(F)F)n3n2)CC1` [Example 28, N-[(4,5-difluoro-1H-benzimidazol-2-yl)methyl]-2-(4-methylpiperazin-1-yl)-7-(trifluoromethyl)imidazo[2,1-f][1,2,4]triazin-4-amine], the IC50 at CDK9/CycT1 is over 20000 nM. The IC50 in test [1] was 1.99 nM. At CDK12, the DC50 worked out at 0.58 nM and the “(IC50 CDK12 high ATP) to (Degradation DC50 CDK12) ratio” value was determined as 2887.

For `COc1cccc2[nH]c(CNc3nc(N4CCNCC4)nn4c(Br)cnc34)nc12` [Example 15, 7-bromo-N-[(4-methoxy-1H-benzimidazol-2-yl)methyl]-2-(piperazin-1-yl)imidazo[2,1-f][1,2,4]triazin-4-amine], on CDK9/CycT1, the IC50 was over 20000 nM. For the same molecule, the IC50 in test [1] was 3.05 nM. Further, at CDK12, the DC50 turned out to be 1.16 nM and the “(IC50 CDK12 high ATP) to (Degradation DC50 CDK12) ratio” value was determined as 1790.

As to `C[C@@H]1CN(c2nc(NCc3nc4c(F)c(F)ccc4[nH]3)c3ncc(Br)n3n2)C[C@H](C)O1` [Example 5, 7-bromo-N-[(4,5-difluoro-1H-benzimidazol-2-yl)methyl]-2-[rel-(2R,6S)-2,6-dimethylmorpholin-4-yl]imidazo[2,1-f][1,2,4]triazin-4-amine], at CDK9/CycT1, the IC50 was 3470 nM. Besides, the IC50 in test [1] came out at 7.97 nM. For the same molecule, at CDK12, the DC50 stood at 2.07 nM and the “(IC50 CDK12 high ATP) to (Degradation DC50 CDK12) ratio” value turned out to be 66.

Regarding `OC[C@@H]1CCCCN1c1nc(NCc2nc3ccccc3[nH]2)c2ncc(Br)n2n1` [Example 17, [(2S)-1-(4-{[(1H-benzimidazol-2-yl)methyl]amino}-7-bromoimidazo[2,1-f][1,2,4]triazin-2-yl)piperidin-2-yl]methanol], the IC50 on CDK9/CycT1 was found to be 4110 nM. For the same molecule, in test [1], the IC50 was found to be 19.3 nM. Further, on CDK12, the DC50 came out at 7.62 nM and the “(IC50 CDK12 high ATP) to (Degradation DC50 CDK12) ratio” value is 15.

For `Fc1cccc2[nH]c(CNc3nc(N4CCOCC4)nn4c(Br)cnc34)nc12` [Example 12, 7-bromo-N-[(4-fluoro-1H-benzimidazol-2-yl)methyl]-2-(morpholin-4-yl)imidazo[2,1-f][1,2,4]triazin-4-amine], the IC50 on CDK9/CycT1 is over 20000 nM; in test [1] it was 49.6 nM. Besides, the DC50 at CDK12 is 4.35 nM. Besides, the “(IC50 CDK12 high ATP) to (Degradation DC50 CDK12) ratio” value on CDK12 was determined as 1084.
